This is an account of results in US20250304587A1, “WEE1 INHIBITOR, PREPARATION THEREFOR AND USE THEREOF” (JIANGSU TASLY DIYI PHARMACEUTICAL CO., LTD., priority 2022, published 2025).

This series is described as follows: Plasma protein binding (equilibrium dialysis), human. The format is in vitro ADME. Conditions: 5 h dialysis, read-out: Plasma Protein binding (PPB) Human (converted).

Molecules are shown by their SMILES.

With `C=CCn1c(=O)c2cnc(Nc3ccc(N4CCN(C)CC4)cc3)nc2n1-c1cccc(C(C)(C)O)n1` [AZD1775, reference compound], the fraction unbound at 5 h, 1 µM is 0.336.
